No end group written: not given here.
How the values were obtained:
tPA [1] = target: T1, tPA (Homo sapiens, UniProt P00750); assay: Halo clot thrombolysis assay, tPA thrombolysis of whole blood clots; format: biochemical; details: tPA 5 nM, 27.5% human plasma
T1 construct: purchased Boehringer Ingelheim, Germany 10 mg vial
Experimental: (§1) We utilised a high throughput 96-well plate thrombolysis assay (“halo clot assay”) based on the procedure developed by Bonnard et al.. To reduce assay components the halo thrombus formation procedure was modified by replacing the original thrombotic mixture consisting of recombinant tissue factor and synthetic phospholipids reconstituted in 30 mM calcium, with thrombin, and reducing the pro-thrombotic volume (i.e., thrombin) from 5 to 3 µL and blood volume from 25 to 12 µL. Another modification to simplify clot formation consisted of adding the thrombin (3 µL; 500 nM in saline) to one side of the well and 12 µL of blood to the opposite side of well, before using a heat stretched Pasteur pipette with sealed end to mix the two liquids together using 4 to 5 circular motions around the edge of the well (halo clot). The original methodology involved adding the 5 μL of the clotting mixture to the edge of the well, and then using a micropipette to slowly release the 25 μL of blood to the edge of the well while at the same time maintaining a circular motion. Plates were incubated in a humidified 37 °C incubator for 1 h before use in the thrombolysis assay.
(§2) The thrombolysis assay involved adding 30 µL of Tris buffer (50 mM Tris–HCl, 100 mM NaCl, pH 7.4) with or without peptide followed by 55 µL Tris buffer containing tPA or TNK (5 nM final concentration) and 50% human plasma (final plasma concentration during thrombolysis 27.5%). The final concentration of peptide during thrombolysis ranged from 0.25 to 16 µM (note: an intravenous dose of R18D at 350 nmol/kg, which is likely to be neuroprotective achieves a Cmax of 0.7–0.9 µM in healthy male and female rats; unpublished observation). […] Following the addition of tPA or TNK into the wells, clot lysis was monitored over a 1-h period at 37 °C using a plate reader (Cytation5, BioTek, USA) by measuring absorbance at 510 nm every 1 min immediately after orbital shaking (205 rpm for 5 s). Controls consisted of wells with no thrombin (100% clot lysis; L100%) and wells with no tPA or TNK (0% clot lysis; L0%). At the 1-h time point, the percentage of thrombolysis (%T) in tPA or TNK treated samples (LTX) was calculated by transforming absorbance values based on the formula: % T = (LTX) − (L0%)/(L100%) − (L0%) × 100. In addition, during the 1-h period of clot lysis lag time and maximal activity (also known as maximum velocity or Vmax) of the thrombolysis reaction were calculated. The lag time is defined as the time interval between the first absorbance reading (time = 0) and the line of maximum slope of the thrombolysis reaction. The maximal activity is calculated from the maximum slope over the time course of the assay and reflects the capacity of an enzyme to catalyse a reaction (i.e., thrombolysis), with higher values representing higher catalytic activity (i.e., tPA/TNK induced plasmin thrombolysis).
(§3) For each thrombolysis assay, replicates for control wells (L0% and L100%) and tPA or TNK only treated wells consisted of n = 4–8. Replicates for tPA or TNK and peptide treated wells consisted of n = 4. For data analysis and graphical representations of the results, data from three independent thrombolytic assays were pooled. Studies consisted of R18D, R18 and NA-1 examined at the 0.5, 1, 2, 4, 8 or 16 µM concentrations performed concurrently on the same 96-well plate, in respective order. In addition, since R18D is known to be resistant to plasmin degradation and appeared to have the most impact on tPA or TNK thrombolysis, a separate set of three independent assays were performed for this peptide alone at concentrations of 0.25, 0.5, 1, 2, 4, 8 or 16 µM. Furthermore, the second dose study with R18D provided the opportunity to include a lower concentration (0.25 µM) of the peptide and to provide comparative data when only one peptide was examined in the thrombolysis assay per 96-well plate as opposed to examining the three peptides concurrently on the same plate. […]

TNK [2] = target: T2, TNK (Homo sapiens, UniProt P00750, H332A/K331A/N152Q/R333A/R334A/T138N); assay: Halo clot thrombolysis assay, TNK thrombolysis of whole blood clots; format: biochemical; details: concurrent study, TNK 5 nM, 27.5% human plasma
T2 construct: purchased Boehringer Ingelheim 50 mg vial
T2 sequence (P00750 36-562 T138N/N152Q/K331A/H332A/R333A/R334A): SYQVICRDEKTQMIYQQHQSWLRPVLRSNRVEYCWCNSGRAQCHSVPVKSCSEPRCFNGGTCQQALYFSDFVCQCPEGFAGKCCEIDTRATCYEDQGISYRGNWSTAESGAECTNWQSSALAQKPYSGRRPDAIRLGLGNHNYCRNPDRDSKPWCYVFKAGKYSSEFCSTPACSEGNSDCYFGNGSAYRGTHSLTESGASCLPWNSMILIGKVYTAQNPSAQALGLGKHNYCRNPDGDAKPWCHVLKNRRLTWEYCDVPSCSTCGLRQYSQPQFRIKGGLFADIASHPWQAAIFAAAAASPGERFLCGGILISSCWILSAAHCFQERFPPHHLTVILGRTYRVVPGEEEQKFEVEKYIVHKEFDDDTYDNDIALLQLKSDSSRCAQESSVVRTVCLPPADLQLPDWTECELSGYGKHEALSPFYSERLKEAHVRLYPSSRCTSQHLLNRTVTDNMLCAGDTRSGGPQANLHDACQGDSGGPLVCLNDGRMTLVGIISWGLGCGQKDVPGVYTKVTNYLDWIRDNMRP
Experimental: as §1, §2, §3

TNK [3] = target: T2, TNK; assay: Neuroprotective proteolytic stability after pre-incubation with TNK (glutamic acid excitotoxicity model, MTS); format: in vitro ADME; details: 1 or 2 h or overnight (22-24 h)
Experimental: (§4) Neuronal cultures were maintained in CO2 incubator.
(§5) tPA (1000 µg/mL) or TNK (5000 µg/mL) resuspended in water (Baxter) were used to prepare 10 µg/mL (170 nM; note this is 34 times the concentration used in thrombolysis assay) stocks in MEM/2% B27 supplement (MEM/B27).
(§6) All data are presented as mean ± standard deviation (SD).

plasmin = details: cited from earlier work
Description: Given the potential future application of the R18D, R18 and NA-1 peptides as ischaemic stroke neurotherapeutics, it is important to establish if they interfere with current and future standard of care treatments, namely alteplase (tPA; recombinant tissue plasminogen activator) and tenecteplase (TNK; a modified version of tPA) thrombolysis, which are routinely administered prior to thrombectomy. […] NA-1 is also degraded by plasmin [8]. Together, these findings confirm that peptides synthesised with D-enantiomer amino acids such as R18D, unlike peptides synthesised with L-enantiomer amino acids are highly resistant to proteolytic degradation and are likely to retain their neuroprotective efficacy ...

tPA [4] = target: T1, tPA; assay: Neuroprotective proteolytic stability after pre-incubation with tPA (glutamic acid excitotoxicity model, MTS); format: in vitro ADME; details: 1 or 2 h or overnight (22-24 h)
Experimental: as §4, §5, §6

trypsin (TrypLE Express) = trypsin (TrypLE Express) (Fusarium oxysporum, UniProt P35049); details: inferred from neuroprotection; peptide 2 µM, 50% TrypLE Express, 1 or 2 h or overnight (22-24 h)
Chain of trypsin (TrypLE Express) (P35049 25-248): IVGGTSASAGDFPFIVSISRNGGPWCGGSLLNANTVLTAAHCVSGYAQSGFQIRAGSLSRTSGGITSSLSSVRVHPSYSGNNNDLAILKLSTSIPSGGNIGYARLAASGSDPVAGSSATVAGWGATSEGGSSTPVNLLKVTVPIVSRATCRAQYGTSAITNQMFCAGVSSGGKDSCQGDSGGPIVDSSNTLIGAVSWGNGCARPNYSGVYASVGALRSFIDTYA
Experimental: Rat primary cortical cultures were established from embryonic day 18–19 Sprague–Dawley rats (Animal Resources Centre, WA, Australia). Briefly, cortical tissue was dissociated in 2 mL Hanks balanced salt solution (HBBS; Life Technologies, Australia) supplemented with 1.3 mM L-cysteine, 10 U/mL papain (Sigma-Aldrich, Australia) and 50 U/mL DNase (Sigma-Aldrich) by trituration with a fire-polished pipette. Dissociated neurons were transferred to a 15-mL tube containing 13 mL of cold Dulbecco’s modified Eagle’s medium (DMEM; Life Technologies)/10% horse serum (Life Technologies) and centrifuged for 4 min at 300×g. Neurons were gently resuspended in 1.5 mL of cold Neurobasal (NB; Life Technologies)/2% B27 supplement (B27; Life Technologies) and the neuronal cell concentration adjusted to 50,000 neurons/70 μL and 70 μL inoculated into each well of a 96-well microtiter plate (Nunc, USA) pre-treated wells. Pre-treated wells were coated with 50 μL of poly-D-lysine (50 μg/mL; 70–150 K; Sigma-Aldrich) for 2–3 h at room temperature before being replaced with 50 μL of NB/B27, 4% fetal bovine serum (Life Technologies), 1% horse serum, 62.5 μM glutamic acid, 25 μM 2-mercaptoethanol, 30 μg/mL penicillin and 50 μg/mL streptomycin and placed in a CO2 incubator (5% CO2, 95% air balance, 98% humidity, 37 °C) prior to seeding with neurons. Neuronal cultures were maintained in CO2 incubator. On day in vitro four, 60 µL fresh NB/B27 containing the mitotic inhibitor cytosine arabinofuranoside (final concentration 0.15 μM; Sigma-Aldrich) was added and neuronal culture were used on day in vitro 11 to 13.
As an alternative to trypsin, TrypLE Express (Thermo Fischer Scientific, Australia) a synthetic serine protease with trypsin-like activity was used. […] Hereafter, TrypLE Express is referred to as trypsin.
Trypsin solution was added to an equal volume of MEM/2% B27 (T:MEM/B27). […] Following the incubation, 50 µL of the T:MEM/B27 or HBSS:MEM/B27 peptide solution was used to treat neuronal culture as described below for the glutamic acid excitotoxicity model. […]

tPA or TNK = format: biochemical, human
Experimental: as §1, §2
For each thrombolysis assay, replicates for control wells (L0% and L100%) and tPA or TNK only treated wells consisted of n = 4–8. Replicates for tPA or TNK and peptide treated wells consisted of n = 4. For data analysis and graphical representations of the results, data from three independent thrombolytic assays were pooled. Studies consisted of R18D, R18 and NA-1 examined at the 0.5, 1, 2, 4, 8 or 16 µM concentrations performed concurrently on the same 96-well plate, in respective order. […]

tPA [5] = target: T1, tPA; details: cited from earlier work
Description: (§7) A potential mechanism that could negatively influence the neuroprotective efficacy of a peptide (and protein) neurotherapeutic when co-administered with a thrombolytic agent in ischaemic stroke is its proteolytic stability. For example, a peptide could be degraded directly by the proteolytic action of tPA and TNK, or indirectly by plasmin following its activation by tPA/TNK.

[6] = in the order; 8 (NA-1), unpublished data (R18D); cited from earlier work
Description: It is important to mention that the results obtained in this study are likely to overestimate any negative effects of R18D, R18 and NA-1 on tPA/TNK lag time and thrombolysis compared with what would occur clinically for several reasons. Firstly, positively charged peptides administered directly into the circulation would have a larger pool of negatively charged plasma proteins such as albumin to bind, and thus reduce any inhibitory electrostatic effects of the peptides on lag time and thrombolysis. In addition, the in vitro thrombolysis assay used in this study was performed in 27.5% plasma wh ...

whole blood halo clot = assay: Halo assay dose response study of tPA and TNK; format: biochemical, human; details: 5 nM tPA or TNK, halo assay dose response study (Supplementary Fig. 1; assay performed without added plasma), N = 4
Experimental: We utilised a high throughput 96-well plate thrombolysis assay (“halo clot assay”) based on the procedure developed by Bonnard et al.. To reduce assay components the halo thrombus formation procedure was modified by replacing the original thrombotic mixture consisting of recombinant tissue factor and synthetic phospholipids reconstituted in 30 mM calcium, with thrombin, and reducing the pro-thrombotic volume (i.e., thrombin) from 5 to 3 µL and blood volume from 25 to 12 µL. […]
The thrombolysis assay involved adding 30 µL of Tris buffer (50 mM Tris–HCl, 100 mM NaCl, […] during thrombolysis 27.5%). […] Following the addition of tPA or TNK into the wells, clot lysis was monitored over a 1-h period at 37 °C using a plate reader (Cytation5, BioTek, USA) by measuring absorbance at 510 nm every 1 min immediately after orbital shaking (205 rpm for 5 s). […] At the 1-h time point, the percentage of thrombolysis (%T) in tPA or TNK treated samples (LTX) was calculated by transforming absorbance values based on the formula: % T = (LTX) − (L0%)/(L100%) − (L0%) × 100. In addition, during the 1-h period of clot lysis lag time and maximal activity (also known as maximum velocity or Vmax) of the thrombolysis reaction were calculated. The lag time is defined as the time interval between the first absorbance reading (time = 0) and the line of maximum slope of the thrombolysis reaction. […]

[7] = human, in vivo, 0.5 mg/kg; cited from earlier work
Description: as §7

T1 sequence (P00750 36-562): as the sequence (P00750 36-562 T138N/N152Q/K331A/H332A/R333A/R334A) above, with N103T, Q117N, A296K, A297H, A298R, A299R counted along it

Substance | Effect on tPA lag time vs tPA control (tPA [1]; concurrent study, 0.5-16 µM peptide) | Increase in tPA thrombolysis maximal activity (tPA [1]; peptide 16 µM, concurrent study, 37 °C) [%] | Effect on percentage tPA thrombolysis at 1 h vs tPA control (tPA [1]; three peptides concurrently on the same plate, 0.5-16 µM peptide, Tris pH 7.4, 37 °C, 1 h, absorbance 510 nm, three independent assays pooled, n = 4, Dunnett's test) | Effect on TNK thrombolysis maximal activity vs TNK control (TNK [2]; 0.5-16 µM peptide) | Effect on percentage TNK thrombolysis at 1 h vs TNK control (TNK [2]; 0.5-16 µM peptide, 37 °C, 1 h) | Increase in TNK lag time (TNK [2]; peptide 8 µM, 37 °C) [min] | Resistance to degradation by TNK (TNK [3]; inferred from retained neuroprotection, peptide 2 µM, TNK 170 nM) | Neuroprotective efficacy after incubation with TNK (TNK [3]; peptide 2 µM in MEM/B27 with TNK 10 µg/mL (170 nM), 37 °C CO2 incubator, then rat cortical neurons, glutamic acid 100 µM 5 min, MTS viability at 20-24 h, N = 4-8) | Neuroprotective properties in the glutamic acid excitotoxicity injury model when pre-incubated with plasmin (plasmin) | Sensitivity to proteolytic degradation by plasmin (plasmin) | Resistance to degradation by tPA (tPA [4]; inferred from retained neuroprotection, peptide 2 µM, tPA 170 nM) | Neuroprotective efficacy after incubation with tPA (tPA [4]; peptide 2 µM in MEM/B27 with tPA 10 µg/mL (170 nM), 37 °C CO2 incubator, then rat cortical neurons, glutamic acid 100 µM 5 min, MTS viability at 20-24 h, N = 4-8) | Resistance to degradation by trypsin (trypsin (TrypLE Express)) | Increase in lag time (time to the commencement of thrombolysis) (tPA or TNK; range over peptide concentrations 0.25-16 µM and both thrombolytics, 1-h assay) [min] | Effect on maximal activity of the thrombolysis reaction (tPA or TNK; summary in abstract) | Degradation when incubated with tPA (tPA [5]) | In vivo peak plasma concentration [6] [µM] | Plasma half-life [6] [min] | Clot lysis after 1-h (whole blood halo clot) | Serum concentration [7] [nM]
RRRRRRRRRRRRRRRRRR [R18] | did not significantly increase tPA lag time | 48.36 | did not significantly inhibit thrombolysis | did not significantly impact TNK thrombolysis maximal activity | did not significantly inhibit TNK thrombolysis | 5.53 | resistant to degradation | a similar and a high level of neuroprotective efficacy | not | sensitive | resistant to degradation | a similar and a high level of neuroprotective efficacy | only R18D is resistant | 0 to 5.53 | appeared to increase the maximal activity | – | – | – | – | –
YGRKKRRQRRRKLSSIESDV [NA-1, reference compound] | – | – | – | – | – | – | – | – | – | sensitive | – | – | – | – | – | is not degraded | 1 to 5 | 5 to 15 | – | –
tPA: recombinant tissue plasminogen activator | – | – | – | – | – | – | – | – | – | – | – | – | – | – | – | – | – | – | approximately 90% | ≤ 30
